# Columns and labels:
# [1] = tested on: Root Knot nematodes; assay: Nematicidal effects of citral in soil, Root Knot nematodes; assay type: in vivo, root-knot nematode
# Description: Methodology: Nematodes used for the analysis originated from commercial agricultural crop soils. Species of nematode included root-knot and citrus. Prior to commencement of each study the nematodes were counted and evaluated for viability. In each experiment soil samples were infected with only one species of nematode. Three measured quantities of soil (250 g) were placed into large PVC plastic containers. Soil moisture was assessed by weighing a soil sample and then drying the sample in a drying oven. Soil moisture content was confirmed using a “Hydroscout” instrument. In all cases the moisture content measured by both methods was within the resolution of the instruments. By determining the water content of the soil it was possible to calculate the volume of terpene solution which would be diluted when mixed with the soil. […] These dilutions were by volume not the more commonly used mass ratios. The reason for using volume dilutions was simply one of convenience enabling the use of a micropipette or cylinder to measure the terpene. The mass ratio of the ‘in soil’ and ‘in water’ solution could be simply calculated by multiplying the ppm of terpene by it's density (0.92 g/ml). The terpene solution was added to each test tube containing a weighed sample of nematode infected soil. The terpene solution and soil were mixed by inverting the test tube several times. […] In each experiment a control group was treated with distilled water. The % mortality (kill) rates in the treatment groups was compared with the control population. The nematodes were extracted by “Sieving & mist extraction” (Ayoub, S. M. 1977) prior to being counted. Criteria for Evaluation: Nematode counts were performed to determine the proportion of nematodes which survived and were killed in each treatment group. […] The results are shown below on Table 17 to 19. The experiment was performed once again, this time with the following changes: • Dose range of 125 ppm-750 ppm was used. • Glass tubes containing 150 g of soil were used as opposed to PVC tubes in previous experiments.
# [2] = tested on: Citrus nematodes; assay: Nematicidal effects of citral in soil, Citrus nematodes; assay type: in vivo, citrus nematode
# Description: Methodology: Nematodes used for the analysis originated from commercial agricultural crop soils. Species of nematode included root-knot and citrus. Prior to commencement of each study the nematodes were counted and evaluated for viability. In each experiment soil samples were infected with only one species of nematode. Three measured quantities of soil (250 g) were placed into large PVC plastic containers.
# Soil moisture was assessed by weighing a soil sample and then drying the sample in a drying oven. Soil moisture content was confirmed using a “Hydroscout” instrument. In all cases the moisture content measured by both methods was within the resolution of the instruments. By determining the water content of the soil it was possible to calculate the volume of terpene solution which would be diluted when mixed with the soil.
# These dilutions were by volume not the more commonly used mass ratios. The reason for using volume dilutions was simply one of convenience enabling the use of a micropipette or cylinder to measure the terpene. The mass ratio of the ‘in soil’ and ‘in water’ solution could be simply calculated by multiplying the ppm of terpene by it's density (0.92 g/ml).
# The terpene solution was added to each test tube containing a weighed sample of nematode infected soil. The terpene solution and soil were mixed by inverting the test tube several times. The test tubes containing the soil and terpene solution were left to stand in racks in the laboratory for 48 hours-72 hours depending on the survival of the untreated nematodes. In each experiment a control group was treated with distilled water. The % mortality (kill) rates in the treatment groups was compared with the control population.
# The nematodes were extracted by “Sieving & mist extraction” (Ayoub, S. M. 1977) prior to being counted.
# Criteria for Evaluation: Nematode counts were performed to determine the proportion of nematodes which survived and were killed in each treatment group.
# The results are shown below on Table 17 to 19.
smiles,measurement,setting,value
"CC(C)=CCCC(C)=CC=O [Citral, citral]",Mean % killed,"[1]; first experiment (Table 15), soil, 62.5 ppm, 8 replicates",18.87%
same,Mean % killed,"[1]; first experiment (Table 15), soil, 125 ppm, 8 replicates",4.34%
same,Mean % killed,"[1]; first experiment (Table 15), soil, 250 ppm, 8 replicates",23.66%
same,Mean % killed,"[1]; first experiment (Table 15), soil, 500 ppm, 8 replicates",67.10%
same,Mean % killed,"[1]; repeated protocol (Table 18), soil, 500 ppm, N 10",99.6%
same,Mean % killed,"[1]; third experiment (Table 20), glass tubes, 150 g of soil, 125 ppm, N 8",74.51%
same,Mean % killed,"[1]; third experiment (Table 20), glass tubes, 150 g of soil, 250 ppm, N 8",97.37%
same,Mean % killed,"[1]; third experiment (Table 20), glass tubes, 150 g of soil, 500 ppm, N 8",100%
same,Mean % killed,"[1]; third experiment (Table 20), glass tubes, 150 g of soil, 750 ppm, N 8",99.42%
same,Mean % killed,"[2]; first experiment (Table 16), 62.5 ppm, 8 replicates",−2.84%
same,Mean % killed,"[2]; first experiment (Table 16), 125 ppm, 8 replicates",46.29%
same,Mean % killed,"[2]; first experiment (Table 16), 250 ppm, 8 replicates",91.66%
same,Mean % killed,"[2]; first experiment (Table 16), 500 ppm, 8 replicates",95.53%
same,Mean % killed,"[2]; repeated protocol (Table 19), 500 ppm, N 10",99.9%
